Results on 39 molecules are retold here after patent US20150143553A1, “Methods And Compositions Comprising A Drosophila Model Of Amyotrophic Lateral Sclerosis” (priority 2013, published 2015).

Each structure is given as a SMILES string. Counter-ions that a name gives are not always drawn.

The test system of the assay is Drosophila larvae expressing wild-type TDP-43 in motor neurons. Put plainly: Drug screen: rescue of lethality caused by wild-type TDP-43 expression in motor neurons (D42 Gal4). The settings on record: transgene WT2. The class given is in vivo. An excerpt: […] Larvae expressing TDP-43 (wild type or mutant, as shown) are raised on drug containing food.
[…] Larvae expressing TDP-43 (wt or mutant) were raised on drug containing food.
Using a Drosophila model of ALS based on TDP-43 that recapitulates several aspects of the disease pathophysiology (33, 35), a drug screen aimed at identifying FDA approved compounds with neuroprotective potential in vivo were designed (FIG. 37A). […] This phenotype was used to screen for drug candidates with therapeutic potential as determined by their ability to rescue pupal lethality and produce viable adults with extended wings (FIG. 37A). […]
UAS TDP-43 males were crossed with D42-Gal4 female virgins on fly food containing either DMSO or pioglitazone. For DMSO controls, the same volume of DMSO as the corresponding drug concentration was added. Bromophenol blue was added to a final concentration of approximately 0.02% to ensure homogeneity. Crosses were made on drug food with 3 female virgins and 2 males in each vial, and were maintained at 25° C. unless noted. The parents were discarded after 5-7 days then the vials were screened for adult progeny with straight wings from day 14 to day 25. All adults were screened for TDP-43 expression by visualizing the YFP tag. Total number of pupae was counted on day 25. Percent survival was calculated using the formula (total number of straight-winged adults/total number of pupae)×100. All experiments were performed in triplicate.

For `Cl.NCC(O)c1ccc(O)cc1` (racemic) [(+,−)-Octopamine HCl], for the setting “30 μM in fly food”, the “Preliminary rescue result: adults with normal wings” value (from here on “Preliminary rescue result: adults”) was 5 Adult Normal Wings Adults.
On the same count and under the same terms, as for `CC(=O)Oc1ccccc1C(=O)O` [Acetylsalicylic Acid], the figure is 1/1; as for `CCC(=O)OCC(=O)[C@@]1(OC(=O)CC)[C@H](C)C[C@H]2[C@H]3[C@H]([C@@H](O)C[C@@]21C)[C@@]1(C)C=CC(=O)C=C1C[C@H]3Cl` [Alclometasone Dipropionate], 2 Adult Normal Wings Adults.
With `CCCCC(CC)CNC(=N)NC(=N)NCCCCCCNC(=N)NC(=N)NCC(CC)CCCC` (stereo not drawn) [Alexidine Dihydrochloride], the “Preliminary rescue result: adults” value (30 μM in fly food) was determined as 6 Adults Normal Wings.
On the same count and under the same terms, as for `CC(=O)OCC(=O)[C@@]12OC3(CCCC3)O[C@@H]1C[C@H]1[C@@H]3CCC4=CC(=O)C=C[C@]4(C)[C@@]3(F)[C@@H](O)C[C@@]12C` [Amcinonide], the figure is 1/1; as for `CN(C)CCCO[C@@H]1[C@H]2OC(C)(C)O[C@H]2O[C@@H]1[C@H](O)CO` [Amiprilose HCl], 1 Adult Normal Wings Adults; as for `Nc1cc(-c2ccncc2)c[nH]c1=O` [Amrinone], 1 Adult Normal Wings Adults.
On to `COC(c1ccccc1)(c1ccccc1)[C@H](Oc1nc(C)cc(C)n1)C(=O)O` [Amrisentan], for which the “Preliminary rescue result: adults” value (50 μM in fly food) is 1 Adult Normal Wings Adults.
Same read-out and setting: as for `O=C1c2c(O)cccc2Cc2cccc(O)c21` [Anthralin], the figure is 1 Adult Normal Wings Adults.
As for `CC(C)c1c(C(=O)Nc2ccccc2)c(-c2ccccc2)c(-c2ccc(F)cc2)n1CC[C@@H](O)C[C@@H](O)CC(=O)O` [Atorvastatin], under “30 μM in fly food”, the “Preliminary rescue result: adults” value is on record as 1 Adult Normal Wings Adults.
On the same count and under the same terms, as for `CC[C@H]1OC(=O)[C@H](C)[C@@H](O[C@H]2C[C@@](C)(OC)[C@@H](O)[C@H](C)O2)[C@H](C)[C@@H](O[C@@H]2O[C@H](C)C[C@H](N(C)C)[C@H]2O)[C@](C)(O)C[C@@H](C)CN(C)[C@H](C)[C@@H](O)[C@]1(C)O` [Azithromycin], the figure is 1 Adult Normal Wings Adults.
Turning to `CC1(C)S[C@@H]2[C@H](NC(=O)[C@H](NC(=O)N3CCNC3=O)c3ccccc3)C(=O)N2[C@H]1C(=O)[O-].[Na+]` [Azlocillin Na Salt], the “Preliminary rescue result: adults” value (30 μM in fly food) turned out to be 1 Adult Normal Wings Adults.
`CCCCOc1cc(C(=O)OCCN(CC)CC)ccc1N` [Benoxinate Hydrochloride]: the “Preliminary rescue result: adults” value (50 μM in fly food) stood at 1 Adult Normal Wings Adults.
With `CN1[C@@H]2CC[C@H]1C[C@@H](OC(c1ccccc1)c1ccccc1)C2` [Benztropine Mesylate], for the setting “30 μM in fly food”, the “Preliminary rescue result: adults” value is on record as 2 Adult Normal Wings Adults.
On to `CC(C)NCC(O)COc1ccc(COCCOC(C)C)cc1.CC(C)NCC(O)COc1ccc(COCCOC(C)C)cc1.O=C(O)/C=C/C(=O)O` (stereo not drawn) [Beoprolol Fumarate], for which, where the note is “50 μM in fly food”, the “Preliminary rescue result: adults” value was 1 Adult Normal Wings Adults.
With `C[N+](C)(CCOc1ccccc1)Cc1ccccc1.O=C([O-])c1cc2ccccc2cc1O` [BepheniμM Hydroxynaphthoate], the “Preliminary rescue result: adults” value (30 μM in fly food) is given as 2 Adult Normal Wings Adults.
On to `C=CCC1(CC(C)C)C(=O)NC(=O)NC1=O` [Butalbital], for which the “Preliminary rescue result: adults” value (50 μM in fly food) amounted to 1 Adult Normal Wings Adults.
Regarding `COC(=O)N/N=C/c1c[n+]([O-])c2ccccc2[n+]1[O-]` [Carbadox], under “50 μM in fly food”, the “Preliminary rescue result: adults” value came out at 1 Adult Normal Wings Adults.
On the same count and under the same terms, as for `CC(C)(C)NCC(O)COc1cccc2c1CCC(=O)N2` (stereo not drawn) [Carteolol HCl], the figure is 2 Adults Normal Wings.
Take `COc1ccccc1OCCNCC(O)COc1cccc2[nH]c3ccccc3c12` (stereo not drawn) [Carvedilol]: the “Preliminary rescue result: adults” value (30 μM in fly food) is 1 Adult Normal Wings Adults.
Same read-out and setting: as for `Cn1nnnc1SCC1=C(C(=O)[O-])N2C(=O)[C@@H](NC(=O)[C@H](O)c3ccccc3)[C@H]2SC1.[Na+]` [Cefamandole Na Salt], the figure is 2/3 Adult Normal Wing.
Same read-out and setting: as for `CO/N=C(\C(=O)N[C@@H]1C(=O)N2C(C(=O)O)=C(C[N+]3(C)CCCC3)CS[C@H]12)c1csc(N)n1` [Cefepime Hydrochloride], the figure is 2 Adult Normal Wings Adults.
The same measure, in the same setting: as for `CO[C@@]1(NC(=O)Cc2cccs2)C(=O)N2C(C(=O)O)=C(COC(N)=O)CS[C@@H]21` [Cefoxitin Sodium Salt], the figure is 1 Adult Normal Wings Adults.
Turning to `Cc1ccc(-c2cc(C(F)(F)F)nn2-c2ccc(S(N)(=O)=O)cc2)cc1` [Celecoxib], the “Preliminary rescue result: adults” value (50 μM in fly food) was 1 Adult Normal Wings Adults.
Turning to `CN(C)CC/C=C1/c2ccccc2Sc2ccc(Cl)cc21` [Chlorprothixene], the “Preliminary rescue result: adults” value (50 μM in fly food) worked out at 3 Adults Normal Wings.
Consider `COCCOC(=O)C1=C(C)NC(C)=C(C(=O)OC/C=C/c2ccccc2)C1c1cccc([N+](=O)[O-])c1` (stereo not drawn) [Cilnidipine], for which, where the note is “30 μM in fly food”, the “Preliminary rescue result: adults” value is reported as 2 Adult Normal Wings Adults.
Regarding `NC1CCN(c2c(F)cc3c(=O)c(C(=O)O)cn(C4CC4)c3c2Cl)C1` (stereo not drawn) [Clinafloxacin], for the setting “30 μM in fly food”, the “Preliminary rescue result: adults” value came out at 4 Adult Normal Wings Adults.
Consider `O=P(O)(O)C(Cl)(Cl)P(=O)(O)O` [Clodronate], for which, where the note is “50 μM in fly food”, the “Preliminary rescue result: adults” value is on record as 3 Adult Normal Wings Adults.
Consider `CC(C)(Oc1ccc(Cl)cc1)C(=O)O` [Clofibric Acid], for which, for the setting “30 μM in fly food”, the “Preliminary rescue result: adults” value worked out at 2 Adult Normal Wings Adults.
In the case of `Clc1ccc(C(OCCN2CCCCC2)c2ccccc2)cc1` (stereo not drawn) [Cloperastine HCl], the “Preliminary rescue result: adults” value (30 μM in fly food) turned out to be 1 Adult Normal Wings Adults.
As for `Cc1cc(C(C#N)c2ccc(Cl)cc2)c(Cl)cc1NC(=O)c1cc(I)cc(I)c1O` (stereo not drawn) [Closantel], the “Preliminary rescue result: adults” value (50 μM in fly food) stood at 2 Adults Normal Wings.
For the molecule `Clc1ccccc1C(c1ccccc1)(c1ccccc1)n1ccnc1` [Clotrimazole], the “Preliminary rescue result: adults” value (50 μM in fly food) was 1 Adult Normal Wings Adults.
The same measure, in the same setting: as for `CN1CCN(C(c2ccccc2)c2ccccc2)CC1` [Cyclizine Hcl], the figure is 1 Adult Normal Wings Adults.
`NS(=O)(=O)c1cc2c(cc1Cl)NC(CC1CCCC1)NS2(=O)=O` (stereo not drawn) [Cyclopenthiazide]: where the note is “30 μM in fly food”, the “Preliminary rescue result: adults” value is reported as 1 Adult Normal Wings Adults.
For `NC(=O)C(c1ccccc1)(c1ccccc1)[C@@H]1CCN(CCc2ccc3c(c2)CCO3)C1` [Darifenacin Hydrobromide], where the note is “30 μM in fly food”, the “Preliminary rescue result: adults” value was 3 Adult Normal Wings Adults.
Turning to `C[C@]12CC[C@H]3[C@@H](CCC4=CC(=O)CC[C@@]43C)[C@@H]1CC[C@@H]2C(=O)CO` [Deoxycorticosterone], the “Preliminary rescue result: adults” value (30 μM in fly food) amounted to 1 Adult Normal Wings Adults.
Consider `CCCCOc1cc(C(=O)NCCN(CC)CC)c2ccccc2n1` [Dibucaine], for which, where the note is “50 μM in fly food”, the “Preliminary rescue result: adults” value amounted to 1 Adult Normal Wings Adults.
Turning to `NS(=O)(=O)c1cc(Cl)c(Cl)c(S(N)(=O)=O)c1` [Dichlorphenamide], under “30 μM in fly food”, the “Preliminary rescue result: adults” value is on record as 2 Adult Normal Wings Adults.
Regarding `Cc1onc(-c2c(Cl)cccc2Cl)c1C(=O)N[C@@H]1C(=O)N2[C@@H]1SC(C)(C)[C@@H]2C(=O)O` [Dicloxacillin Sodium Salt], the “Preliminary rescue result: adults” value (50 μM in fly food) is recorded as 1 Adult Normal Wings Adults.
